The values below come from patent publication US20070219348A1, “Mutations in the mineralocorticoid receptor ligand binding domain polypeptide that permit structural determination of low affinity ligand complexes and screening methods employing same” (priority 2006, published 2007).

The target in one data set is Reporter Alone. The data set is described as follows: Ligand binding affinities on MR constructs (Table 1), Reporter Alone. The settings on record: read-out: IC50 binding affinity, Reporter Alone. The protocol: (§1) As used herein, the terms “weakly binding ligand” and “weak ligand” are used interchangeably and mean a ligand that binds a receptor with low affinity. The binding strength of a ligand to a receptor can be experimentally measured using any of several procedures, as is generally known in the art. In some embodiments of the presently disclosed subject matter, ligand binding is measured using a competitive binding assay in which a ligand of interest competes with a labeled ligand for binding to a receptor. […] This quantitative measurement can be expressed as an IC50 value. Therefore, the greater the IC50 value of a ligand, the lower the binding affinity the ligand has for the receptor.
(§2) Cortisol has a hydroxyl attached to C11, where cortisone has a ketone.

For another data set, the target named is T1, MR (Homo sapiens, UniProt P08235).
T1 sequence (P08235 1-984): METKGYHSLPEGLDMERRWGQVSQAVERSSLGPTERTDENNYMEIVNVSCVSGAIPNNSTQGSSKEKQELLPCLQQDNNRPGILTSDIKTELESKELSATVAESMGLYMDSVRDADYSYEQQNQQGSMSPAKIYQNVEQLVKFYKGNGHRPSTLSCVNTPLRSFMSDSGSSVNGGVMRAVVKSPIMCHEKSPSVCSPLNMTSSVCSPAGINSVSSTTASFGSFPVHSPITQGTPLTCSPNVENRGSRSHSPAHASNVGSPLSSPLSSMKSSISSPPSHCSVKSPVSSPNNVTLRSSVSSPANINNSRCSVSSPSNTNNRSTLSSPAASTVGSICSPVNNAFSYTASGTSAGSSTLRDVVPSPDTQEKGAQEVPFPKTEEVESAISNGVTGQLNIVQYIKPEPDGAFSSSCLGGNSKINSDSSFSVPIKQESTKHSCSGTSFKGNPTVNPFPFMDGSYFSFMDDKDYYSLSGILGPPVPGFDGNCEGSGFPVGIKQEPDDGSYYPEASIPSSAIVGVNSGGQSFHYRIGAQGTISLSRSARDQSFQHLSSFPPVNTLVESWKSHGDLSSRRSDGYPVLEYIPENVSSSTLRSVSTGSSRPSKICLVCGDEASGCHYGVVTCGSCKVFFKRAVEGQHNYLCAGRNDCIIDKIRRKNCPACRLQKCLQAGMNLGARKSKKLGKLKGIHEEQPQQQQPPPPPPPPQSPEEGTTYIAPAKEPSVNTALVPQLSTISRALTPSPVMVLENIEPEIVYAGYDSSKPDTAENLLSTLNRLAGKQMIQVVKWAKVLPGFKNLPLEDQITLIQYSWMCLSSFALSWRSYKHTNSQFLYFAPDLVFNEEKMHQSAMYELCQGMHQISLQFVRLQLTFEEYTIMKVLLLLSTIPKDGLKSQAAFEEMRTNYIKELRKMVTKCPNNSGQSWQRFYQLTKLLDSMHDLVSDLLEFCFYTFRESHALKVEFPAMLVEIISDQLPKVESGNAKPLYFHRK
The settings on record: Quinkler & Stewart, 2003; cited from earlier work.

A further data set has as its target T2, MR S810L (Homo sapiens, UniProt P08235, S810L).
T2 sequence (P08235 1-984 S810L): T1 sequence (P08235 1-984) with S810L
The data set is described as follows: Ligand binding affinities on MR constructs (Table 1), MR S810L. The settings on record: read-out: IC50 binding affinity, MR S810L. The protocol:
as §1, §2

In another data set the target is T3, Wild type MR (Homo sapiens, UniProt P08235).
T3 sequence (P08235 1-984): T1 sequence (P08235 1-984)
Nature of the data set: Ligand binding affinities on MR constructs (Table 1), wild type MR. The protocol: as §1, §2

Data set [1] concerns the molecule itself. Nature of the data set: X-ray crystal structure of native MR LBD with deoxycorticosterone (crystal contact).

Numbering of substitutions follows the chain as printed. Read-outs that look alike come from different tables or passages of the source.

For the molecule `C[C@]12CCC(=O)C=C1CC[C@@H]1[C@@H]2[C@@H](O)C[C@]2(C=O)[C@@H](C(=O)CO)CC[C@@H]12` [Aldosterone, aldosterone], at Reporter Alone (in uM), the 50% inhibitory concentration (IC50) is above 10 µM.
Consider `C[C@]12CCC(=O)C=C1CC[C@@H]1[C@@H]2[C@@H](O)C[C@@]2(C)[C@H]1CC[C@]2(O)C(=O)CO` [Cortisol, cortisol], for which, on MR, the “binding affinity for MR in words” value is “low nM binder”. Further, the IC50 on MR S810L was found to be 20 nM; at Reporter Alone (cells printed in nM), 0.785 µM; at Wild type MR (Wild type MR, cells printed in nM, read-out: IC50 binding affinity, Wild type MR), 21 nM.
For `C[C@]12CCC(=O)C=C1CC[C@@H]1[C@@H]2C(=O)C[C@@]2(C)[C@H]1CC[C@]2(O)C(=O)CO` [Cortisone, cortisone], the “binding affinity for MR in words” value on MR is “micromolar binder”. For the same molecule, the IC50 is 20 nM on MR S810L; above 10 µM at Reporter Alone (in uM); above 10000 nM on Wild type MR (Wild type MR, in uM, read-out: IC50 binding affinity, Wild type MR); above 10000 nM on Wild type MR (wild-type MR, read-out: IC50 binding affinity, wild-type MR). Besides, the “fold difference in IC50s between cortisone and cortisol” value on Wild type MR (wild type MR, transactivation assays) is above 700 fold.
Consider `CC(=O)[C@H]1CC[C@H]2[C@@H]3CCC4=CC(=O)CC[C@]4(C)[C@H]3CC[C@]12C` [Progesterone, progesterone], for which the half-inhibitory concentration (IC50) at Reporter Alone (in uM) is above 10 µM.
Turning to `CC(=O)S[C@@H]1CC2=CC(=O)CC[C@]2(C)[C@H]2CC[C@@]3(C)[C@@H](CC[C@@]34CCC(=O)O4)[C@H]12` [Spironolactone, spironolactone], the IC50 on Reporter Alone (cells printed in nM) is 0.0036 µM.

B1: Native (wild type) MR LBD (amino acids 712-984) (receptor)
chain: APAKEPSVNTALVPQLSTISRALTPSPVMVLENIEPEIVYAGYDSSKPDTAENLLSTLNRLAGKQMIQVVKWAKVLPGFKNLPLEDQITLIQYSWMCLSSFALSWRSYKHTNSQFLYFAPDLVFNEEKMHQSAMYELCQGMHQISLQFVRLQLTFEEYTIMKVLLLLSTIPKDGLKSQAAFEEMRTNYIKELRKMVTKCPNNSGQSWQRFYQLTKLLDSMHDLVSDLLEFCFYTFRESHALKVEFPAMLVEIISDQLPKVESGNAKPLYFHRK
notes: Crystallized with deoxycorticosterone; the final model holds residues 727-908 and 914-984; also called native MR; WT MR
Regarding B1, the binding result in data set [1] is reported as “binds”.
